Experimental data from patent US20230277524A1, “COMBINATION THERAPY FOR TREATMENT OF VIRAL INFECTIONS” (priority 2020, published 2023).
“Also recorded” adds a separate entry of the source. Like-named read-outs stand apart in the source and are kept apart here.

What was measured:
[1] = tested on: VERO-EGFP cells
[2] = tested on: SARS-CoV-2 virus; format: cell-based
[3] = tested on: SARS-CoV-2 virus; test: microbe, parasite or virus in culture; format: cell-based
[4] = tested on: SARS-CoV-2 virus; test: microbe, parasite or virus in culture; format: cell-based; settings: Severe acute respiratory syndrome coronavirus 2, 72 h; Vero E6-WT cells, three days post-infection; read-out: EC50 for % inhibition of virus-induced CPE
[5] = tested on: SARS-CoV-2; test: Cell-based antiviral assay (CPE, MTS) in Huh7 cells; settings: Huh7, 0.0062 μM concentration level, 4 days post-infection
[6] = tested on: ABCB1; settings: low-nM dual-specificity ABCB1/ABCG2 inhibitor; cited from earlier work
[7] = plate 3, 12 drugs, 250 nM, day 4, MLR model (FIG. 2)
[8] = 250 nM, day 4 (FIG. 3, P3 TOX 250 nM)

## C[C@H]1CCC/C=C/[C@@H]2C[C@H](O)C[C@H]2[C@H](O)/C=C/C(=O)O1 [BrefA, Brefeldin A]
[1]; twelve-drug plate, scanned 4 days later (FIG. 10)
  toxicity (loss of fluorescence intensity, cell loss): cytotoxic and the cause of the observed cell loss

## Cc1c(O)c(=O)ccn1C [Deferiprone]
[2]
  complementing the REC combination or substituting for curcumin: failed to complement the REC combination or substitute for curcumin

## O=c1nc(NO)ccn1[C@@H]1O[C@H](CO)[C@@H](O)[C@H]1O [EIDD-1931]
[2]
  enhancement of / effect on the REC combination: had no effect on the REC combination
[2]; focus testing (FIGS. 13-18)
  substitution for remdesivir in the REC combination: failed to substitute for remdesivir
[2]; focus testing (FIGS. 13-18), listed as EIDD1931
  substitution for remdesivir in the REC combination: none were able to substitute for remdesivir
[2]; listed as EIDD1
  individual antiviral efficacy against SARS-CoV2: does not exert an antiviral effect
[2]; listed as EIDD1931
  individual antiviral efficacy against SARS-CoV2: did not provide evidence for efficacy

## CC(C)C(=O)OC[C@H]1O[C@@H](n2cc/c(=N\O)[nH]c2=O)[C@H](O)[C@@H]1O [EIDD-2801]
[2]
  substitution for remdesivir in the REC combination: failed as a substitute for remdesivir; also recorded: none were able to substitute for remdesivir

## N#C[C@@]1(c2ccc3c(N)ncnn23)O[C@H](CO)[C@@H](O)[C@H]1O [GS441524]
[2]
  individual antiviral efficacy against SARS-CoV2: smaller, yet significant, antiviral effect
  substitution for remdesivir in the REC combination: did not replace remdesivir in the REC combination; also recorded: failed to substitute for remdesivir
[2]; system optimization
  criticality when optimized for maximal cytopathic effect: failed to demonstrate criticality

## Cc1sc2c(c1C)C(c1ccc(Cl)cc1)=N[C@@H](CC(=O)OC(C)(C)C)c1nnc(C)n1-2 [JQ-1]
[2]
  enhancement of / effect on the REC combination: none of the compounds synergized with the REC combination

## COc1ccc2c3c([nH]c2c1)[C@H](CC(C)C)N1C(=O)[C@H](CCC(=O)OC(C)(C)C)NC(=O)[C@@H]1C3 [Ko143]
[2]; focus testing, REC combination at 250 nM (FIGS. 11, 12, 17)
  substitution / complementation for elacridar in the REC combination: failed to complement for elacridar
[2]; focus testing, REC combination at 250 nM (FIGS. 11, 12, 17), listed as K0143
  substitution / complementation for elacridar in the REC combination: cannot substitute for elacridar

## CC(=O)N[C@@H](CS)C(=O)O [N-acetyl cysteine]
[2]
  complementing the REC combination or substituting for curcumin: failed to complement the REC combination, or substitute for curcumin

## CCOC/C=C/c1ccc(-c2nc(-c3ccc(NC(C)C)cc3)c(-c3ccc(NC(C)C)cc3)[nH]2)cc1 [ONT-093]
[2]
  substitution / complementation for elacridar in the REC combination: failed to complement

## CC(C)[C@H](NC(=O)c1ccc2ccccc2n1)C(=O)N[C@@H](CC(=O)O)C(=O)COc1c(F)cccc1F [Q-VD-Oph]
[2]
  enhancement of / effect on the REC combination: none of the compounds synergized with the REC combination

## O=c1c(O)c(-c2ccc(O)c(O)c2)oc2cc(O)cc(O)c12 [Quercetin]
[2]
  substitution / complementation for elacridar in the REC combination: failed to complement for elacridar

## Nc1nc(Nc2ccc3c(c2)CCC(N2CCCC2)CC3)nn1-c1cc2c(nn1)-c1ccccc1CCC2 (centres unmarked) [R428]
[2]
  enhancement of / effect on the REC combination: all failed to enhance the REC combination

## CN(C)C(=O)COC(=O)Cc1ccc(OC(=O)c2ccc(NC(=N)N)cc2)cc1 [camostat]
[2]
  individual antiviral efficacy against SARS-CoV2: did not provide evidence for efficacy
[2]; [7]
  antiviral response (survival of the cells in response to the SARS-CoV-2 virus): negatively impacted the survival of the cells

## Cc1cc(C)c(Nc2ccnc(Nc3ccc(C#N)cc3)n2)c(C)c1 [dapivirine]
[2]
  enhancement of / effect on the REC combination: all failed to enhance the REC combination

## COc1cc2c(cc1OC)CN(CCc1ccc(NC(=O)c3cccc4c(=O)c5cccc(OC)c5[nH]c34)cc1)CC2 [elacridar]
[3]; Severe acute respiratory syndrome coronavirus 2, 72 h, Vero E6-GFP cells, three days post-infection, read-out: EC50 for % inhibition of virus-induced CPE
  EC50: 2160 ± 500 nM
[1]; [8]
  toxicology (cell viability without virus): none of the three drugs in the triad of remdesivir, elacridar, and curcumin negatively impacted cell viability
[4]
  EC50: 1070 ± 500 nM
[2]; [7]
  antiviral response (survival of the cells in response to the SARS-CoV-2 virus): antiviral response was demonstrated

## NC(=O)c1nc(F)c[nH]c1=O [favipiravir]
[2]
  enhancement of / effect on the REC combination: had no effect on the efficacy of the remdesivir, elacridar, and curcumin combination
  individual antiviral efficacy against SARS-CoV2: failed to emerge as efficacious
  substitution for remdesivir in the REC combination: none were able to substitute for remdesivir

## Cc1nc(-c2ccc(OCC(C)C)c(C#N)c2)sc1C(=O)O [febuxostat]
[2]
  substitution / complementation for elacridar in the REC combination: cannot substitute for elacridar; also recorded: failed to complement

## CN1CC[C@H](c2c(O)cc(O)c3c(=O)cc(-c4ccccc4Cl)oc23)[C@H](O)C1 [flavopiridol]
[1]
  toxicology (cytotoxicity without virus): cytotoxic
[1]; [8]
  toxicology (cell viability without virus): highly toxic to the Vero-EGFP cells
[1]; 250 nM, day 4 (FIG. 3, P3 TOX 250 nM), listed as Flavopiridol
  toxicology (cell viability without virus): individually caused cell death
[2]
  interaction terms / synergism in antiviral response: did not interact significantly with the other three compounds
[2]; [7]
  antiviral response (survival of the cells in response to the SARS-CoV-2 virus): antiviral response was demonstrated

## Nc1ncnc2c([C@@H]3N[C@H](CO)[C@@H](O)[C@H]3O)c[nH]c12 [galidesivir]
[2]
  contribution factor to the effect of the REC combination: 9.6

## CCN(CCO)CCCC(C)Nc1ccnc2cc(Cl)ccc12 (centres unmarked) [hydroxychloroquine]
[2]
  enhancement of / effect on the REC combination: all failed to enhance the REC combination
  individual antiviral efficacy against SARS-CoV2: failed to emerge as efficacious

## CCCCC1=NC2(CCCC2)C(=O)N1Cc1ccc(-c2ccccc2-c2nnn[nH]2)cc1 [irbesartan]
[2]
  individual antiviral efficacy against SARS-CoV2: did not provide evidence for efficacy
[2]; [7]
  antiviral response (survival of the cells in response to the SARS-CoV-2 virus): negatively impacted the survival of the cells

## Cc1cccc(C)c1OCC(=O)N[C@@H](Cc1ccccc1)[C@@H](O)C[C@H](Cc1ccccc1)NC(=O)[C@H](C(C)C)N1CCCNC1=O [lopinavir]
[2]
  individual antiviral efficacy against SARS-CoV2: did not provide evidence for efficacy

## OC(c1cc(C(F)(F)F)nc2c(C(F)(F)F)cccc12)C1CCCCN1 (centres unmarked) [mefloquine]
[2]
  enhancement of / effect on the REC combination: all failed to enhance the REC combination
  individual antiviral efficacy against SARS-CoV2: did not provide evidence for efficacy

## Cc1c(O)cccc1C(=O)N[C@@H](CSc1ccccc1)[C@H](O)CN1C[C@H]2CCCC[C@H]2C[C@H]1C(=O)NC(C)(C)C [nelfinavir]
[2]
  enhancement of / effect on the REC combination: all failed to enhance the REC combination

## CCC(CC)COC(=O)[C@H](C)N[P@](=O)(OC[C@H]1O[C@@](C#N)(c2ccc3c(N)ncnn23)[C@H](O)[C@@H]1O)Oc1ccccc1 [remdesivir]
[3]; Vero E6-GFP, 1.11 μM
  inhibition of virus-induced cytopathic effect: 50-60%
[1]
  toxicology (cell viability without virus): none of the three drugs in the triad of remdesivir, elacridar, and curcumin negatively impacted cell viability
  toxicology (cytotoxicity without virus): no cytotoxicity
[5]
  cytopathic effect of the virus at one concentration: minimally protected
[2]
  antiviral response (survival of the cells in response to the SARS-CoV-2 virus): antiviral response was demonstrated

## CC(N)C12CC3CC(CC(C3)C1)C2 (centres unmarked) [rimantadine]
[2]
  individual antiviral efficacy against SARS-CoV2: did not provide evidence for efficacy

## CC(C)c1nc(CN(C)C(=O)N[C@H](C(=O)N[C@@H](Cc2ccccc2)C[C@H](O)[C@H](Cc2ccccc2)NC(=O)OCc2cncs2)C(C)C)cs1 [ritonavir]
[2]
  individual antiviral efficacy against SARS-CoV2: did not provide evidence for efficacy

## COc1cc2c(cc1OC)CN(CCc1ccc(NC(=O)c3cc(OC)c(OC)cc3NC(=O)c3cnc4ccccc4c3)cc1)CC2 [tariquidar]
[6]
  ABCB1 inhibitory potency: 5.1 nM
[2]
  antiviral potency in synergizing with remdesivir (interaction terms): equally potent in synergizing with remdesivir
  substitution / complementation for elacridar in the REC combination: can be substituted for elacridar

## C=C1CC[C@H](O)C/C1=C/C=C1\CCC[C@]2(C)[C@@H]([C@H](C)CCCC(C)C)CC[C@@H]12 [vit-D3]
[2]
  enhancement of / effect on the REC combination: failed to enhance the REC combination

## [Zn] [zinc]
[2]
  enhancement of / effect on the REC combination: failed to enhance the REC combination

## Z-VAD
[2]
  enhancement of / effect on the REC combination: none of the compounds synergized with the REC combination

## ivermectin
[2]
  enhancement of / effect on the REC combination: unable to enhance the REC combination
  individual antiviral efficacy against SARS-CoV2: individual, but limited potency
